The record followed here is ChEMBL document CHEMBL5465560, “Selectivity Literature for EUbOPEN Chemogenomic Library” (2024).

Each structure is given as a SMILES string.

The target of assay [1] is Ribosomal protein S6 kinase alpha-2 (Homo sapiens) (UniProt Q15349). The assay is described as follows: Selectivity interaction (Kinase panel (Z-LYTE Assay)) EUB0001632a RPS6KA2. Conditions: at 10 µM.
Assay [2] deals with Cholecystokinin receptor type A (Homo sapiens) (UniProt P32238). Put plainly: Selectivity interaction (Eurofins CEREP Diversity Profile (receptors and ion channels)) EUB0000279b CCKAR. Conditions: at 10 µM.
In assay [3] the target is T1, Serine/threonine-protein kinase D2 (Homo sapiens) (UniProt Q9BZL6).
T1 sequence (whole entry): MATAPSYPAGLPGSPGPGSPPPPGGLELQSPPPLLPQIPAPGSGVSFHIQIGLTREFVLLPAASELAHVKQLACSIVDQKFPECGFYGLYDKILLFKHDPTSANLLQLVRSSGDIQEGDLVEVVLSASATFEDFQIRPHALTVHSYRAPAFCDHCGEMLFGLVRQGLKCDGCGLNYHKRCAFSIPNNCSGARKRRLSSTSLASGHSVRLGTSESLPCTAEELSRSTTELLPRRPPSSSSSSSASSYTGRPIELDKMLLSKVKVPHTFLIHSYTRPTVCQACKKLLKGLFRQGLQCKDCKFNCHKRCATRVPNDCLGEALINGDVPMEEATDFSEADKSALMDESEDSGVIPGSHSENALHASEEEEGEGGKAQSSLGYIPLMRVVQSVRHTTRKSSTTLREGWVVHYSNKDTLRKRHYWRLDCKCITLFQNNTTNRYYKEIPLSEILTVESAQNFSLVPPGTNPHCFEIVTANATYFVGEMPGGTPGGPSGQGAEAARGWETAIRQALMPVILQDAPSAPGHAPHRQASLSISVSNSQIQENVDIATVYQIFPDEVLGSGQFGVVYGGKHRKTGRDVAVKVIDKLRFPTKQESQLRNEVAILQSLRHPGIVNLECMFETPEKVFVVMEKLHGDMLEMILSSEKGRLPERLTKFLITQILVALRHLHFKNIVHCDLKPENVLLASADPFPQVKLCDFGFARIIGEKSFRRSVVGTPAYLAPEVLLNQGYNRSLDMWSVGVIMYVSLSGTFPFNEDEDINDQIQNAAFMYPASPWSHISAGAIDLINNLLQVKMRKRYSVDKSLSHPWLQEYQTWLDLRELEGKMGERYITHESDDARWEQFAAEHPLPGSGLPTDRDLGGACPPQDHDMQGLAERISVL
Conditions: at 10 µM.

For assay [4], the target named is Casein kinase I isoform gamma-3 (Homo sapiens) (UniProt Q9Y6M4). The assay is described as follows: Selectivity interaction (KinaseProfiler screening (Millipore)) EUB0000601a CSNK1G3. Conditions: at 3 µM.
In assay [5] the target is T2, Serine/threonine-protein kinase D3 (Homo sapiens) (UniProt O94806).
T2 sequence (whole entry): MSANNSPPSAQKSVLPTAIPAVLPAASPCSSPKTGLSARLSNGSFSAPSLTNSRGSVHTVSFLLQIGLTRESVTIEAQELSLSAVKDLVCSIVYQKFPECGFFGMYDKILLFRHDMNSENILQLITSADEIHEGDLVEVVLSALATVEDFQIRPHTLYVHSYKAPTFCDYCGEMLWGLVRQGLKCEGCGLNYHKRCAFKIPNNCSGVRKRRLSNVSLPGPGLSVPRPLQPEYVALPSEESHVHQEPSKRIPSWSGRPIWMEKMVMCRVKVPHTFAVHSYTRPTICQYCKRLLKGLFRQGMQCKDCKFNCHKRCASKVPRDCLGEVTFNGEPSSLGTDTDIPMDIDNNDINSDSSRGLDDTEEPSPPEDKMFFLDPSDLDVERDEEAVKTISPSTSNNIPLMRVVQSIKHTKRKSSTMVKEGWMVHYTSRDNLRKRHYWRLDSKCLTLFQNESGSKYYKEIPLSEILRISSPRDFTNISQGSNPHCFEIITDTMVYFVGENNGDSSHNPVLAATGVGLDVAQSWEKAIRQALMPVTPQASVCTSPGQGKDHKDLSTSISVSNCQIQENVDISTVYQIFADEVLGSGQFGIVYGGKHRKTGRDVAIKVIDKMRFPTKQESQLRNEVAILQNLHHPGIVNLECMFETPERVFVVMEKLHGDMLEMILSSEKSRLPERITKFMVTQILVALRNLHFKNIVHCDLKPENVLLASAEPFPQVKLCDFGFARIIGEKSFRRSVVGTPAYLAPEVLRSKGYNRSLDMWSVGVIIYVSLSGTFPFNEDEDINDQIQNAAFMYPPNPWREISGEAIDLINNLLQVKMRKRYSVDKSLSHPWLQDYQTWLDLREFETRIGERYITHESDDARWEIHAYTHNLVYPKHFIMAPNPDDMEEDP
Put plainly: Selectivity interaction (Kinase panel (Invitrogen)) EUB0000639a PRKD3. Conditions: at 200 nM.

Assay [6] has as its target T3, Ephrin type-A receptor 1 (Homo sapiens) (UniProt P21709).
T3 sequence (whole entry): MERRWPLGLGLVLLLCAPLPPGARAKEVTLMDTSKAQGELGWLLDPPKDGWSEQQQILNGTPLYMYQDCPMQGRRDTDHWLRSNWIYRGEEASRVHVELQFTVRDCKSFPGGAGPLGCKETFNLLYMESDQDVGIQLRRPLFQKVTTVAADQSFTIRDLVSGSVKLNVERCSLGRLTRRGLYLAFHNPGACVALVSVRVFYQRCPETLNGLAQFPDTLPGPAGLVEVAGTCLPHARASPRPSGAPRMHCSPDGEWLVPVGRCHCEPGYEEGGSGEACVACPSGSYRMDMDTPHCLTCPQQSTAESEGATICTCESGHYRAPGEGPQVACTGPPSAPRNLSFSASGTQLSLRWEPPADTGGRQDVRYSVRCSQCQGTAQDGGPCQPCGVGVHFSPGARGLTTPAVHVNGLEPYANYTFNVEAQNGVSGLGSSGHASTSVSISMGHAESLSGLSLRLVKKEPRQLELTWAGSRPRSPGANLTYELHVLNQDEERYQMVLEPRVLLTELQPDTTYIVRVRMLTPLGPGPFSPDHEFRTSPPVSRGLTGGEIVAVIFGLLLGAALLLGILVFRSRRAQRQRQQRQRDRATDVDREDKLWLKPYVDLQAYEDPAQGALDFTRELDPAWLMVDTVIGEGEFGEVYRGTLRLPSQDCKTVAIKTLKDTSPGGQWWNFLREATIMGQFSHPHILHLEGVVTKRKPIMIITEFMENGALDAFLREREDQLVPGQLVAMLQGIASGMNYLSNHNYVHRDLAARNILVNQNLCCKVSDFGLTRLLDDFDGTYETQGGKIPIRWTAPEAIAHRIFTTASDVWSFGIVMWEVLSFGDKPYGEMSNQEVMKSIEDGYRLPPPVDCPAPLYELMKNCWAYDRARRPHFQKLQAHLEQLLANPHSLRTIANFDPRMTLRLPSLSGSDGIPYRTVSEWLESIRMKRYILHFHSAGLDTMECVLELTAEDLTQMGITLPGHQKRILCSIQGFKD
The assay is described as follows: Selectivity interaction (Kinase panel (Invitrogen)) EUB0000639a EPHA1. The note with it: at 200 nM.

Assay [7] addresses Muscarinic acetylcholine receptor M5 (Homo sapiens) (UniProt P08912). Put plainly: Selectivity interaction (GPCR panel (PDSP screen)) EUB0001079a CHRM5. The note with it: at 10 µM.

Cholecystokinin receptor type A (Homo sapiens), sequence (P32238 whole entry): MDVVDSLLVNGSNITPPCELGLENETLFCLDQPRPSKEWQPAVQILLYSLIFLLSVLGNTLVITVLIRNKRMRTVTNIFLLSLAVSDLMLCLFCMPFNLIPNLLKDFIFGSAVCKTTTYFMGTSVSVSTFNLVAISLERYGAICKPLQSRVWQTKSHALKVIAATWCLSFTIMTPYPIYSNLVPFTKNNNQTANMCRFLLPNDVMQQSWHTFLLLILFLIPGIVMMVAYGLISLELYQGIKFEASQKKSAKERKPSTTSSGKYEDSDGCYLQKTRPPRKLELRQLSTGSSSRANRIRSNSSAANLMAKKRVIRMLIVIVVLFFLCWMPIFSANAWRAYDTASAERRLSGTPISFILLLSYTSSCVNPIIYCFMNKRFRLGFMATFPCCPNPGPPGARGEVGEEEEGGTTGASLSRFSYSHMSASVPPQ
Muscarinic acetylcholine receptor M5 (Homo sapiens), sequence (P08912 whole entry): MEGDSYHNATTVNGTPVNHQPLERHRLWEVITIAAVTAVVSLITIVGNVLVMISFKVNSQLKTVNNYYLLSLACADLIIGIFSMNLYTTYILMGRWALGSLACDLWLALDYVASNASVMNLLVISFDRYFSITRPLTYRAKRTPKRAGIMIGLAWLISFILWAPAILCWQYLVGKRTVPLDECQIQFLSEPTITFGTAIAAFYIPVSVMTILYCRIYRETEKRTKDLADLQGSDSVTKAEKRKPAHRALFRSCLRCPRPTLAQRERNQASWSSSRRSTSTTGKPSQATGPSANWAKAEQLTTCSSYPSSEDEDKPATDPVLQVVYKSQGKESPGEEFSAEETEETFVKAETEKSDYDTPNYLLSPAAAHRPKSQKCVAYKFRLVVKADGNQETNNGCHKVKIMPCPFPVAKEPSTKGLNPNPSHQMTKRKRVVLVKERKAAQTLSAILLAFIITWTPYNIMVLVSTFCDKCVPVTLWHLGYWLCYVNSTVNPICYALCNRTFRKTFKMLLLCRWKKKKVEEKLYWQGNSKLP
Casein kinase I isoform gamma-3 (Homo sapiens), sequence (Q9Y6M4 whole entry, looked up, canonical isoform): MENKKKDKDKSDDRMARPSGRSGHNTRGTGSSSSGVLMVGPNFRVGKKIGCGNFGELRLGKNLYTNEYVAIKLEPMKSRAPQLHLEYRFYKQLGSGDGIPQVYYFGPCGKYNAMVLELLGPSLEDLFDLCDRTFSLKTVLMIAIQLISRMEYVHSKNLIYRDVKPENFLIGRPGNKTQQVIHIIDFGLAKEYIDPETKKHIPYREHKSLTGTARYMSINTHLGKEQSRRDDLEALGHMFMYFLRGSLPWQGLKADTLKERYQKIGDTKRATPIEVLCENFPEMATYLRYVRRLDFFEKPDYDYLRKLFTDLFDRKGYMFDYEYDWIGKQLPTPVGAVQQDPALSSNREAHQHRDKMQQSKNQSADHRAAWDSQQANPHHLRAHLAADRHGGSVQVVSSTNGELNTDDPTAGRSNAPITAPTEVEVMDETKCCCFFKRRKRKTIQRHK
Ribosomal protein S6 kinase alpha-2 (Homo sapiens), sequence (Q15349 whole entry): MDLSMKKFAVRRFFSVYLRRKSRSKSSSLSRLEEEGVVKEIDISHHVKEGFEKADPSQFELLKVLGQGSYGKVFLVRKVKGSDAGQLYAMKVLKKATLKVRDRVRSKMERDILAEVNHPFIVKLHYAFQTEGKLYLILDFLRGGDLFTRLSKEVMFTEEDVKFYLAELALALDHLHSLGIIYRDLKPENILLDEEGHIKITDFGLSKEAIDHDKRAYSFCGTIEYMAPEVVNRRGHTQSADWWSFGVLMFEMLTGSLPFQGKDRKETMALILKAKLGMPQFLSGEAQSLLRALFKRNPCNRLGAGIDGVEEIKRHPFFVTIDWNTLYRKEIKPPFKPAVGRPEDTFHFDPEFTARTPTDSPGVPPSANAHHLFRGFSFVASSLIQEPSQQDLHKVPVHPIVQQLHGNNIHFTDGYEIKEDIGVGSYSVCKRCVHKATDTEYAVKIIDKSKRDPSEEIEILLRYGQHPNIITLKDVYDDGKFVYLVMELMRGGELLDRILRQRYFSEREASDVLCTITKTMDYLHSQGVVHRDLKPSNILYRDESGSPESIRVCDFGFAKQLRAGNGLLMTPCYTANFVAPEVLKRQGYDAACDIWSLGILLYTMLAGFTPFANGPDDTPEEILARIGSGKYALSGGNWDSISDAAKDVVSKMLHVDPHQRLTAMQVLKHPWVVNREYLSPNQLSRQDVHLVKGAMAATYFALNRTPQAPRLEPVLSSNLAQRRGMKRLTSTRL

Consider `Cn1cc(-n2cnc3c(NCc4nc5cc(Cl)c(Cl)cc5[nH]4)nc(N4CCOCC4)nc32)cn1`, for which the % of control in assay [1] stood at 1.22%.
Compound `CC(=O)c1cc(-c2ccccc2OCC2CC2)c2ncccn12` showed a % of control in assay [2] of 116%.
As to `CCN(CC)CCCCNc1ncc2cc(-c3cc(OC)cc(OC)c3)c(NC(=O)NC(C)(C)C)nc2n1`, the % of control in assay [3] worked out at 100%.
In turn, `CCc1cc(Nc2nccc(-c3c(-c4ccc(OC)c(C(=O)Nc5c(F)cccc5F)c4)nc4ccccn34)n2)c(OC)cc1N1CCC(N2CCN(S(C)(=O)=O)CC2)CC1` yielded a % of inhibition in assay [4] of 46%.
On to `CC[C@@H]1[C@H](F)C(=O)N[C@@H]1COc1nccc2cc(C(N)=O)c(OC)cc12` [ZIMLOVISERTIB], for which the % of inhibition in assay [5] amounted to 10.2%; in assay [6] it was 4.58%.
`Nc1cnc(N2CCc3cc(S(=O)(=O)Nc4c(F)cc(Cl)cc4F)cc(N4CCCC4=O)c32)nc1` [TP-020n] gave a % of inhibition in assay [7] of 1.45%.
